Test results: US20110212968A1, “PHENETHYLAMIDE DERIVATIVES AND THEIR HETEROCYCLIC ANALOGUES” (priority 2008, published 2011)

Assays:
[1] = molecular target: T1, human orexin-2 receptor (Homo sapiens, UniProt O43614); experiment: Intracellular calcium measurement (FLIPR Tetra), orexin receptor antagonistic activity, OX2; type: cell-based; settings: CHO cells expressing human orexin-2 receptor, 3 nM orexin-A
T1 construct: expressed in transfected cells; host or cells: CHO (Chinese hamster ovary) cells, kept under G418 selection
T1 sequence (O43614 1-444): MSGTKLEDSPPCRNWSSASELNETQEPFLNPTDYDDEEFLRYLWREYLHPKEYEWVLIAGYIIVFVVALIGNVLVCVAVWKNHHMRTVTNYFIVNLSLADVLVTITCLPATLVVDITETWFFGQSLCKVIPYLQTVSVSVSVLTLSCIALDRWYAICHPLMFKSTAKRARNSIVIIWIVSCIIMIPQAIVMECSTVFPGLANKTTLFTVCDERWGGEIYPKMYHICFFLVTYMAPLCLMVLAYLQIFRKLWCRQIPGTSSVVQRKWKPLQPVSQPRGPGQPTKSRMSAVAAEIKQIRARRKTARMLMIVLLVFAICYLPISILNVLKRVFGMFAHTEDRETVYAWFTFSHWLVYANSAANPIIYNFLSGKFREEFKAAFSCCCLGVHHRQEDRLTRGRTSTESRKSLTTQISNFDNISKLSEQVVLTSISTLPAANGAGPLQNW
Method: (§1) The orexin receptor antagonistic activity of the compounds of formula (I) is determined in accordance with one of the following experimental methods.
(§2) Chinese hamster ovary (CHO) cells expressing the human orexin-1 receptor and the human orexin-2 receptor, respectively, are grown in culture medium (Ham F-12 with L-Glutamine) containing 300 μg/ml G418, 100 U/ml penicillin, 100 μg/ml streptomycin and 10% heat inactivated fetal calf serum (FCS). The cells are seeded at 20,000 cells/well into 384-well black clear bottom sterile plates (Greiner). The seeded plates are incubated overnight at 37° C. in 5% CO2.
(§3) Human orexin-A as an agonist is prepared as 1 mM stock solution in MeOH:water (1:1), diluted in HBSS containing 0.1% bovine serum albumin (BSA), NaHCO3: 0.375 g/l and 20 mM HEPES for use in the assay at a final concentration of 3 nM. Antagonists are prepared as 10 mM stock solution in DMSO, then diluted in 384-well plates, first in DMSO, then in HBSS containing 0.1% bovine serum albumin (BSA), NaHCO3: 0.375 g/l and 20 mM HEPES.
(§4) On the day of the assay, 50 μl of staining buffer (HBSS containing 1% FCS, 20 mM HEPES, NaHCO3: 0.375 g/l, 5 mM probenecid (Sigma) and 3 μM of the fluorescent calcium indicator fluo-4 AM (1 mM stock solution in DMSO, containing 10% pluronic) is added to each well.
(§5) The 384-well cell-plates are incubated for 50 min at 37° C. in 5% CO2 followed by equilibration at RT for 30-120 min before measurement.
(§6) Within the Fluorescent Imaging Plate Reader (FLIPR Tetra, Molecular Devices), antagonists are added to the plate in a volume of 10 μl/well, incubated for 10 min and finally 10 μl/well of agonist is added. Fluorescence is measured for each well at 1 second intervals, and the height of each fluorescence peak is compared to the height of the fluorescence peak induced by 3 nM orexin-A with vehicle in place of antagonist. For each antagonist, the IC50 value (the concentration of compound needed to inhibit 50% of the agonistic response) is determined and may be normalized using the obtained IC50 value of a on-plate reference compound (normalized values in Table 1 are indicated by an asterisk *). With the FLIPR Tetra, two different conditions (conditions A and conditions B) were used, differing in adjustment of pipetting speed and cell splitting regime. The calculated IC50 values of the compounds may fluctuate depending on the daily cellular assay performance. Fluctuations of this kind are known to those skilled in the art.

[2] = molecular target: T2, human orexin-1 receptor (Homo sapiens, UniProt O43613); experiment: Intracellular calcium measurement (FLIPR Tetra), orexin receptor antagonistic activity, OX1; type: cell-based; settings: CHO cells expressing human orexin-1 receptor, 3 nM orexin-A
T2 construct: expressed in transfected cells; host or cells: CHO (Chinese hamster ovary) cells, kept under G418 selection
T2 sequence (O43613 1-425): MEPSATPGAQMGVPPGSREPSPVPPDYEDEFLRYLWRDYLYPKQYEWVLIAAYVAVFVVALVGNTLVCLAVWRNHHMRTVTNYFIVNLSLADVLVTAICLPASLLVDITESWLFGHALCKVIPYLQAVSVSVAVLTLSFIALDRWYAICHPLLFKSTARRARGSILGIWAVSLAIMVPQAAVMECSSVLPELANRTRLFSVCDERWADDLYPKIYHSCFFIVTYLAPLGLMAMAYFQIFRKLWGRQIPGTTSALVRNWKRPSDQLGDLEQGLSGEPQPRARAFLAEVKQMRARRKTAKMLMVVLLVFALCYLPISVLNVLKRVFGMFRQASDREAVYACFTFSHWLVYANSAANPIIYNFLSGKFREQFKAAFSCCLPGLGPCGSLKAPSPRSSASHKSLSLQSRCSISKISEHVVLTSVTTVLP
Method: as §1, §2, §3, §4, §5, §6

[3] = conditions B, normalized (*) using IC50 of on-plate reference compound

Row | IC50 [1, 3] | IC50 [2, 3] | IC50 ([1]; conditions B) | IC50 ([2]; conditions B) | Structure (SMILES) | other results
1 | 23 nM | 87 nM | – | – | COc1ccc(-c2cccnc2C(=O)N(CCc2c[nH]c3cc(Cl)ccc23)CC2CC2)cn1 [Example 353] | –
2 | – | – | – | – | COc1ccc(CCN(CC2CC2)C(=O)c2sc(C)nc2-c2ccc(Cl)cc2)cc1OC [Example 48, 4-(4-Chloro-phenyl)-2-methyl-thiazole-5-carboxylic acid cyclopropylmethyl-[2-(3,4-dimethoxy-phenyl)-ethyl]-amide] | IC50 ([1]; conditions A): 17 nM; IC50 ([2]; conditions A): 4920 nM
3 | 13 nM | 148 nM | – | – | Cc1nc(C(=O)N(CCc2c[nH]c3ccc(F)cc23)CC2CC2)c(-c2ccc(F)c(CO)c2)s1 [Example 418, 5-(4-Fluoro-3-hydroxymethyl-phenyl)-2-methyl-thiazole-4-carboxylic acid cyclopropylmethyl-[2-(5-fluoro-1H-indol-3-yl)-ethyl]-amide] | –
4 | – | – | 17 nM | 7 nM | COc1ccc2c(CCN(CC3CC3)C(=O)c3nc(N)sc3-c3cccc(C)c3)c[nH]c2c1 [Example 227, 2-Amino-5-m-tolyl-thiazole-4-carboxylic acid cyclopropylmethyl-[2-(6-methoxy-1H-indol-3-yl)-ethyl]-amide] | –
5 | 214 nM | 6000 nM | – | – | COc1cccc2c(CCN(CC3CC3)C(=O)c3nccnc3-c3cccc(C(F)(F)F)c3)c[nH]c12 [Example 444, 3-(3-Trifluoromethyl-phenyl)-pyrazine-2-carboxylic acid cyclopropylmethyl-[2-(7-methoxy-1H-indol-3-yl)-ethyl]-amide] | –
6 | – | – | – | – | COc1ccc(CCN(CC2CC2)C(=O)c2snnc2-c2ccccc2)cc1OC [Example 53, 4-Phenyl-[1,2,3]thiadiazole-5-carboxylic acid cyclopropylmethyl-[2-(3,4-dimethoxy-phenyl)-ethyl]-amide] | IC50 ([1]; conditions A): 81 nM; IC50 ([2]; conditions A): 8670 nM
7 | 17 nM | 31 nM | – | – | Cc1ccc(-c2ncncc2C(=O)N(CCc2c[nH]c3ccccc23)CC2CC2)cc1C [Example 504, 4-(3,4-Dimethyl-phenyl)-pyrimidine-5-carboxylic acid cyclopropylmethyl-[2-(1H-indol-3-yl)-ethyl]-amide] | –
8 | – | – | 16 nM | 1120 nM | COCCN(CCc1ccc(OC)c(OC)c1)C(=O)c1nc(C)sc1-c1cccc(F)c1 [Example 127, 5-(3-Fluoro-phenyl)-2-methyl-thiazole-4-carboxylic acid [2-(3,4-dimethoxy-phenyl)-ethyl]-(2-methoxy-ethyl)-amide] | –
9 | – | – | 45 nM | 171 nM | Cc1cccc(-c2sc(N)nc2C(=O)N(CCc2ccc3ccccc3c2)CC2CC2)c1 [Example 167, 2-Amino-5-m-tolyl-thiazole-4-carboxylic acid cyclopropylmethyl-(2-naphthalen-2-yl-ethyl)-amide] | –
10 | – | – | – | – | COc1ccc(C(O)CN(CC2CC2)C(=O)c2ncsc2-c2cccc(C(F)(F)F)c2)cc1OC (centres unmarked) [Example 85, 5-(3-Trifluoromethyl-phenyl)-thiazole-4-carboxylic acid cyclopropylmethyl-[2-(3,4-dimethoxy-phenyl)-2-hydroxy-ethyl]-amide] | IC50 ([1]; conditions A): 551 nM; IC50 ([2]; conditions A): > 10000 nM
11 | 16 nM | 192 nM | – | – | CCCN(CCc1c[nH]c2ccc(F)cc12)C(=O)c1nccnc1-c1ccccc1 [Example 283, 3-Phenyl-pyrazine-2-carboxylic acid [2-(5-fluoro-1H-indol-3-yl)-ethyl]-propyl-amide] | –
12 | 585 nM | 2440 nM | – | – | CC(C)N(CCc1c[nH]c2ccc(F)cc12)C(=O)c1nccnc1-c1ccccc1 [Example 287, 3-Phenyl-pyrazine-2-carboxylic acid [2-(5-fluoro-1H-indol-3-yl)-ethyl]-isopropyl-amide] | –
13 | – | – | 6 nM | 479 nM | CCCN(CCc1ccc(OC)c(OC)c1)C(=O)c1nc(C)sc1-c1cccc(F)c1 [Example 109, 5-(3-Fluoro-phenyl)-2-methyl-thiazole-4-carboxylic acid [2-(3,4-dimethoxy-phenyl)-ethyl]-propyl-amide] | –
14 | 76 nM | 346 nM | – | – | COc1ccc(-c2cccnc2C(=O)N(CCc2c[nH]c3ccc(F)cc23)CC(F)(F)F)cn1 [Example 312] | –
15 | 15 nM | 259 nM | – | – | COc1cccc(-c2ncncc2C(=O)N(CCc2c[nH]c3ccccc23)CC2CC2)c1 [Example 506, 4-(3-Methoxy-phenyl)-pyrimidine-5-carboxylic acid cyclopropylmethyl-[2-(1H-indol-3-yl)-ethyl]-amide] | –
16 | – | – | 16 nM | 7 nM | Cc1cccc(-c2sc(N)nc2C(=O)N(CCc2c[nH]c3ccc(F)cc23)CC2CC2)c1 [Example 232, 2-Amino-5-m-tolyl-thiazole-4-carboxylic acid cyclopropylmethyl-[2-(5-fluoro-1H-indol-3-yl)-ethyl]-amide] | –
17 | 283 nM | 5620 nM | – | – | Cc1cccc(-c2sc(CN(C)C)nc2C(=O)N(CCc2c[nH]c3ccc(F)cc23)CC2CC2)c1 [Example 279, 2-Dimethylaminomethyl-5-m-tolyl-thiazole-4-carboxylic acid cyclopropylmethyl-[2-(5-fluoro-1H-indol-3-yl)-ethyl]-amide] | –
18 | – | – | 6 nM | 282 nM | COc1cccc(-c2cnccc2C(=O)N(CCc2ccc(OC)c(OC)c2)CC2CC2)c1 [Example 389, N-Cyclopropylmethyl-N-[2-(3,4-dimethoxy-phenyl)-ethyl]-3-(3-methoxy-phenyl)-isonicotinamide] | –
19 | – | – | 201 nM | 243 nM | Cc1cccc(-c2sc(N)nc2C(=O)N(CCn2ccc3ccccc32)CC2CC2)c1 [Example 221, 2-Amino-5-m-tolyl-thiazole-4-carboxylic acid cyclopropylmethyl-(2-indol-1-yl-ethyl)-amide] | –
20 | 48 nM | 1380 nM | – | – | COc1ccc2[nH]cc(CCN(CC3CC3)C(=O)c3cnc(C)nc3-c3ccccc3)c2c1C [Example 479, 2-Methyl-4-phenyl-pyrimidine-5-carboxylic acid cyclopropylmethyl-[2-(5-methoxy-4-methyl-1H-indol-3-yl)-ethyl]-amide] | –
21 | – | – | 279 nM | > 10000 nM | COc1ccc(CCN(CCN(C)C)C(=O)c2nc(N)sc2-c2cccc(C)c2)cc1OC [Example 130, 2-Amino-5-m-tolyl-thiazole-4-carboxylic acid [2-(3,4-dimethoxy-phenyl)-ethyl]-(2-dimethylamino-ethyl)-amide] | –

Row | Structure (SMILES) | IC50 [1, 3] | IC50 [2, 3] | IC50 ([1]; conditions B) | IC50 ([2]; conditions B) | other results
22 | COc1cc(CCN(CC2CC2)C(=O)c2nc(C)sc2-c2ccc(C)c(C)c2)c(OC)cc1I [Example 213, 5-(3,4-Dimethyl-phenyl)-2-methyl-thiazole-4-carboxylic acid cyclopropylmethyl-[2-(4-iodo-2,5-dimethoxy-phenyl)-ethyl]-amide] | – | – | 153 nM | 157 nM | –
